Data from the NIST ThermoML archive (doi:10.1016/j.fluid.2014.10.015).
± gives the expanded uncertainty stated by the source.

Conditions: for mass density / viscosity: Liquid; for mass density: Vibrating tube method; for viscosity: Concentric cylinders viscometry; for surface tension liquid-gas: Pendant drop shape

CC(=O)[O-].CCCCn1cc[n+](C)c1 [1-butyl-3-methylimidazolium acetate]
Conditions	mass density [kg/m3]	viscosity [mPa·s]
273.15 K, 101 kPa	1068.3 ± 6.2	–
273.15 K, 101.33 kPa	1068.29 ± 6.2	–
273.15 K, 238 kPa	1068.35 ± 6.2	–
273.15 K, 5002 kPa	1070.1 ± 6.2	–
273.15 K, 10020 kPa	1071.93 ± 6.2	–
273.15 K, 19968 kPa	1075.5 ± 6.3	–
273.15 K, 29945 kPa	1079.01 ± 6.4	–
273.15 K, 40001 kPa	1082.46 ± 6.5	–
273.15 K, 49987 kPa	1085.81 ± 6.5	–
273.15 K, 59935 kPa	1089.07 ± 6.6	–
273.15 K, 69985 kPa	1092.29 ± 6.7	–
273.15 K, 79928 kPa	1095.39 ± 6.8	–
273.15 K, 90040 kPa	1098.47 ± 6.9	–
273.15 K, 99956 kPa	1101.42 ± 7	–
273.15 K, 109260 kPa	1104.11 ± 7	–
273.15 K, 119925 kPa	1107.11 ± 7.1	–
273.15 K, 129945 kPa	1109.85 ± 7.2	–
273.15 K, 139956 kPa	1112.52 ± 7.3	–
278.15 K, 101.33 kPa	–	3157.5 ± 190
278.17 K, 101.33 kPa	1065.11 ± 6.1	–
283.12 K, 747 kPa	1062.18 ± 6.1	–
283.13 K, 5103 kPa	1063.85 ± 6.1	–
283.15 K, 101 kPa	1061.93 ± 6.1	–
283.15 K, 101.33 kPa	–	1818.3 ± 99
283.15 K, 59694 kPa	1083.4 ± 6.5	–
283.15 K, 70000 kPa	1086.8 ± 6.6	–
283.15 K, 79404 kPa	1089.83 ± 6.7	–
283.15 K, 90034 kPa	1093.15 ± 6.8	–
283.15 K, 98553 kPa	1095.75 ± 6.9	–
283.15 K, 109979 kPa	1099.13 ± 7	–
283.15 K, 120352 kPa	1102.1 ± 7.1	–
283.15 K, 129998 kPa	1104.78 ± 7.2	–
283.15 K, 139706 kPa	1107.39 ± 7.2	–
283.16 K, 9902 kPa	1065.67 ± 6.2	–
283.16 K, 29987 kPa	1073.08 ± 6.3	–
283.16 K, 39574 kPa	1076.5 ± 6.4	–
283.16 K, 50021 kPa	1080.12 ± 6.5	–
283.17 K, 101.33 kPa	1061.96 ± 6.1	–
283.17 K, 19845 kPa	1069.38 ± 6.2	–
293.13 K, 99228 kPa	1090.59 ± 6.8	–
293.13 K, 110000 kPa	1093.89 ± 6.9	–
293.13 K, 120552 kPa	1097.03 ± 7	–
293.13 K, 130029 kPa	1099.77 ± 7.1	–
293.13 K, 139794 kPa	1102.51 ± 7.2	–
293.14 K, 19892 kPa	1063.32 ± 6.2	–
293.14 K, 89975 kPa	1087.68 ± 6.7	–
293.15 K, 101 kPa	1055.7 ± 6	–
293.15 K, 101.33 kPa	1055.7 ± 6	689.5 ± 32
293.15 K, 928 kPa	1056.02 ± 6	–
293.15 K, 10042 kPa	1059.57 ± 6.1	–
293.15 K, 29991 kPa	1067.08 ± 6.2	–
293.15 K, 50024 kPa	1074.3 ± 6.4	–
293.15 K, 59451 kPa	1077.57 ± 6.5	–
293.15 K, 70011 kPa	1081.16 ± 6.5	–
293.15 K, 79858 kPa	1084.42 ± 6.6	–
293.16 K, 4731 kPa	1057.51 ± 6.1	–
293.16 K, 39318 kPa	1070.48 ± 6.3	–
298.13 K, 119989 kPa	1094.32 ± 6.9	–
298.14 K, 19965 kPa	1060.4 ± 6.1	–
298.14 K, 59928 kPa	1075.03 ± 6.4	–
298.15 K, 101 kPa	1052.59 ± 6	–
298.15 K, 101.33 kPa	1052.59 ± 6	447.5 ± 19
298.15 K, 1002 kPa	1052.95 ± 6	–
298.15 K, 10002 kPa	1056.52 ± 6.1	–
298.15 K, 29947 kPa	1064.19 ± 6.2	–
298.15 K, 49953 kPa	1071.51 ± 6.4	–
298.15 K, 70002 kPa	1078.49 ± 6.5	–
298.15 K, 89954 kPa	1085.08 ± 6.7	–
298.15 K, 109924 kPa	1091.31 ± 6.8	–
298.15 K, 129954 kPa	1097.2 ± 7	–
298.15 K, 139957 kPa	1100.01 ± 7.1	–
298.16 K, 5001 kPa	1054.55 ± 6	–
298.16 K, 39934 kPa	1067.89 ± 6.3	–
298.16 K, 80006 kPa	1081.84 ± 6.6	–
298.16 K, 99359 kPa	1088.06 ± 6.8	–
313.13 K, 101.33 kPa	1043.35 ± 5.9	–
313.13 K, 20418 kPa	1051.65 ± 6	–
313.13 K, 30021 kPa	1055.44 ± 6.1	–
313.13 K, 39510 kPa	1059.09 ± 6.2	–
313.13 K, 50039 kPa	1063.04 ± 6.2	–
313.14 K, 59562 kPa	1066.53 ± 6.3	–
313.14 K, 139775 kPa	1092.44 ± 7	–
313.15 K, 101 kPa	1043.35 ± 5.9	–
313.15 K, 101.33 kPa	–	155 ± 5.4
313.15 K, 70013 kPa	1070.25 ± 6.4	–
313.15 K, 119744 kPa	1086.54 ± 6.8	–
313.15 K, 129979 kPa	1089.6 ± 6.9	–
313.16 K, 10222 kPa	1047.54 ± 6	–
313.16 K, 79427 kPa	1073.52 ± 6.5	–
313.16 K, 89989 kPa	1077.08 ± 6.5	–
313.16 K, 98994 kPa	1080.03 ± 6.6	–

Conditions	surface tension liquid-gas [mN/m]
293.2 K	37.87 ± 1.4
298.2 K	37.61 ± 1.4
303.2 K	37.36 ± 1.4
308.2 K	37.11 ± 1.4
